Laboratory results taken from publication PMC5769128, “Human UDP-Glucuronosyltransferase 2B4 and 2B7 Are Responsible for Naftopidil Glucuronidation in Vitro” (Frontiers in Pharmacology, 2018).

How the values were obtained:
Format in all cases: in vitro ADME
UGT2B15 = target: T1, UGT2B15 (Homo sapiens, UniProt P54855); assay: Inhibition screening of recombinant UGTs by NAF enantiomers, UGT2B15 (4-MU); settings: recombinant UGT2B15, probe 4-MU, 100 μM NAF enantiomer, read-out: Inhibition of 4-MU-G formation
T1 construct: purchased BD Gentest
T1 sequence (P54855 24-530): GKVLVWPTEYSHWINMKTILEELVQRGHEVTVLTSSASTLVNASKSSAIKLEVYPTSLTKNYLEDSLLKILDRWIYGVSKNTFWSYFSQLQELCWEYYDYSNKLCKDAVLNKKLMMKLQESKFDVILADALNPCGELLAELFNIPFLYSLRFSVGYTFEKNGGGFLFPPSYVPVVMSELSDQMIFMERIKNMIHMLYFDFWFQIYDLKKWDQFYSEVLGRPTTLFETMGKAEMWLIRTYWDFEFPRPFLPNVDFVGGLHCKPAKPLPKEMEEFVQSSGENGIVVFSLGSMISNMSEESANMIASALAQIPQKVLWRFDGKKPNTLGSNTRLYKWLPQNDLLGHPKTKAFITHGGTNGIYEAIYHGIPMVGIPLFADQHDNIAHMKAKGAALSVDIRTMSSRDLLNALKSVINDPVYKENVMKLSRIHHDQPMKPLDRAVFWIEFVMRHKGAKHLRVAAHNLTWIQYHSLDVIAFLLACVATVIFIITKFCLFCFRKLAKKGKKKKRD
Experimental: (§1) The inhibition screening study was performed by investigating the 12 recombinant UGTs with 10 and 100 μM NAF enantiomer. […] 4-MU, as a non-specific substrate, was added to the other incubated samples. Instead of NAF enantiomers, the same volume of water was added to be the control sample. […] The formation of 4-MU-G and TFP-G produced from the 12 incubation system were analyzed by HPLC. The instrument parameters for the LC were as follows: system, Agilent 1260; Agilent Eclipse Plus C18 (2.1 mm × 50 mm, 1.8 μm, Santa Clara, CA, United States); mobile phase, methanol: 0.1% formic acid in water (0–3 min, 35:65; 3.1–4.5 min, 65:35; 4.6–5 min, 35:65); flow rate, 0.4 mL/min; column temperature, 25°C; and injection volume, 2 μL. The retention times of 4-MU, 4-MU-G, TFP, TFP-G, and MU (IS) were 1.5, 0.5, 2.2, 1.8, and 1.0 min, respectively.

UGT2B7 = target: T2, UGT2B7 (Homo sapiens, UniProt P16662); assay: Inhibition of zidovudine glucuronidation in pooled HLM; parameters: tissue BD Gentest; host or cells: pooled human liver microsomes; settings: substrate zidovudine, enzyme HLM
T2 sequence (P16662 24-529): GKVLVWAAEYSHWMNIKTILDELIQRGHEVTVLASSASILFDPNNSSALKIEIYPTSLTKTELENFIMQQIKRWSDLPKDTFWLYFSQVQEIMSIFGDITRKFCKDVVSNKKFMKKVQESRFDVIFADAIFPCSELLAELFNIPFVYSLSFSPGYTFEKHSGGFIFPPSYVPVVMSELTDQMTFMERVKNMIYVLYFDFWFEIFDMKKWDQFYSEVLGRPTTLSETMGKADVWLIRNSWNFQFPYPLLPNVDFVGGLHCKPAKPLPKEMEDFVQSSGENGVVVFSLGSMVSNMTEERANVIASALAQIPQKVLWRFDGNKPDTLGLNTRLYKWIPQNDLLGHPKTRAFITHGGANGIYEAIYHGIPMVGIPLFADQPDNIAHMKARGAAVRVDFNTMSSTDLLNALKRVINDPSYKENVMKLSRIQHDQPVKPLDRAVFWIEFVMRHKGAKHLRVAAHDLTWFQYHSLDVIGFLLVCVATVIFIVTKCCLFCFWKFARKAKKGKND

UGT1A7 = target: T3, UGT1A7 (Homo sapiens, UniProt Q9HAW7); assay: Inhibition screening of recombinant UGTs by NAF enantiomers, UGT1A7 (4-MU); settings: recombinant UGT1A7, probe 4-MU, 100 μM NAF enantiomer, read-out: Inhibition of 4-MU-G formation
T3 construct: purchased BD Gentest
T3 sequence (Q9HAW7 26-530): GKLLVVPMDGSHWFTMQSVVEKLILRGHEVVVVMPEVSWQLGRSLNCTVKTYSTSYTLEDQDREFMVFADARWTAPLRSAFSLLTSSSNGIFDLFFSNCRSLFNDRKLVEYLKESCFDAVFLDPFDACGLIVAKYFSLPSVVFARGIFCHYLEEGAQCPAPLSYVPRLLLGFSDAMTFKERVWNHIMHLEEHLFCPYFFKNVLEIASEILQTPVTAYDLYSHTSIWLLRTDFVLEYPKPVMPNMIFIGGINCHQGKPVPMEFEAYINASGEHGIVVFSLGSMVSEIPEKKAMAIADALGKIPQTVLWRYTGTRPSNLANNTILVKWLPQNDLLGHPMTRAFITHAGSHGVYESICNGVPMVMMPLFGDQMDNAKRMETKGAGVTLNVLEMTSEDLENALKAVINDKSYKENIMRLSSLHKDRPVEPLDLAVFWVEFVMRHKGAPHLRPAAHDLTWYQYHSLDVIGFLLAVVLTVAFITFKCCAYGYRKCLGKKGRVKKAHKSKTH
Experimental: as §1

Row | inhibition at 100 μM (UGT2B15) [%] | Inhibition type (UGT2B7) | Ki (UGT2B7) [µM] | inhibition at 100 μM (UGT1A7) [%] | SMILES
1 | > 75 | Competitive | 64.9 ± 7.8 | > 75 | COc1ccccc1N1CCN(C[C@@H](O)COc2cccc3ccccc23)CC1 [R(+)-NAF]
2 | > 75 | Competitive | 35.7 ± 4.1 | > 75 | COc1ccccc1N1CCN(C[C@H](O)COc2cccc3ccccc23)CC1 [S(-)-NAF]
